Reference: publication PMC10463303 (Veterinary Research, 2023)
≈ marks a conversion by molar mass, not a printed value. Peptide text beside a SMILES is read from it.

Legend:
Assay type in all cases: cell-based, Streptococcus suis serotype 2
Details in all cases: 18 h
SS2 strain SC19 = test system: SS2 strain SC19
Protocol: (§1) Tryptic soy broth (TSB; Beijing Land Bridge Technology Co., ltd, China) with 10% fetal bovine serum (FBS; Zhejiang Tianhang Biotechnology Co., ltd, China) were used as bacterial growth media for antimicrobial activity assays and tryptic soy agar (TSA; Beijing Land Bridge Technology Co., ltd, China) plates containing 10% FBS were used for the colony counting assay. Bacteria were cultured at 37 °C for 18 h in TSB or TSA agar plates.
(§2) Antimicrobial activity of cathelicidins was performed using a broth microdilution assay. Briefly, bacteria were maintained in TSB medium with 10% FBS at 37 °C and grown to mid-logarithmic growth phase before being tested. Then, 50 μL of peptides (0 to 80 μM) in triplicate were mixed with an equal volume of bacterial suspension (2 × 10^6 CFU/mL) in 96-well plates and incubated for 18 h at 37 ℃. The minimum inhibitory concentration (MIC) was defined as the lowest concentration of ones at which there was no visible bacteria growth. The minimum bactericidal concentration (MBC) was determined by colony counting. Fifty microliter mixed medium were removed from wells in which visible bacteria growth was not observed and then were plated out on TSA plates. After overnight culture at 37 °C, survival bacteria were counted.

SS2 strain P1/7 = experiment: Antimicrobial activity assay (broth microdilution MIC, MBC by colony counting)
Protocol: as §1, §2

[1] = test system: SS2 strains including SC19 and P1/7
Protocol: as §1, §2

[2] = broth microdilution, TSB + 10% FBS, peptides 0 to 80 μM in triplicate, bacterial suspension 2 × 10^6 CFU/mL, 37 °C, no visible growth

Structure (SMILES)	MBC toward SC19 (SS2 strain SC19)	MBC toward P1/7 (SS2 strain P1/7)	MBC (anti-SS2 activity) [1]	MIC (anti-SS2 activity) [1]	MIC toward SC19 (SS2 strain SC19; [2])	MIC toward P1/7 (SS2 strain P1/7; [2])
CC[C@H](C)[C@H](NC(=O)[C@H](CCCCN)NC(=O)[C@H](CCCNC(=N)N)NC(=O)[C@H](CC(C)C)NC(=O)[C@H](Cc1ccccc1)NC(=O)[C@H](CCCNC(=N)N)NC(=O)CNC(=O)[C@H](Cc1ccccc1)NC(=O)[C@@H](N)CCCNC(=N)N)C(=O)N[C@@H](CCCNC(=N)N)C(=O)N[C@@H](CCCNC(=N)N)C(=O)N[C@@H](Cc1ccccc1)C(=O)N[C@@H](CCCNC(=N)N)C(=O)N1CCC[C@H]1C(=O)N[C@@H](CCCCN)C(=O)N[C@H](C(=O)N[C@H](C(=O)N[C@H](C(=O)N[C@H](C(=O)N[C@H](C(=O)N[C@@H](CCC(N)=O)C(=O)NCC(=O)N[C@@H](CO)C(=O)N[C@@H](C)C(=O)N[C@@H](CCCNC(=N)N)C(=O)N[C@@H](Cc1ccccc1)C(=O)O)[C@@H](C)CC)[C@@H](C)O)[C@@H](C)CC)[C@@H](C)O)C(C)C [CATH-2] (H-RFGRFLRKIRRFRPKVTITIQGSARF-OH)	20 µM (≈ 64.2 µg/mL)	10 µM (≈ 32.1 µg/mL)	10 to 20 µM	10 to 20 µM	–	–
CC[C@H](C)[C@H](NC(=O)CNC(=O)[C@H](C)NC(=O)[C@H](C)NC(=O)[C@@H](NC(=O)[C@@H](NC(=O)[C@H](CC(N)=O)NC(=O)[C@@H](NC(=O)[C@H](C)NC(=O)[C@@H](NC(=O)[C@@H]1CCCN1C(=O)[C@@H](NC(=O)[C@H](CC(C)C)NC(=O)[C@@H]1CCCN1C(=O)[C@H](Cc1c[nH]c2ccccc12)NC(=O)[C@H](Cc1ccccc1)NC(=O)[C@H](CCCNC(=N)N)NC(=O)[C@H](CCCCN)NC(=O)[C@@H](NC(=O)[C@@H](N)CCCNC(=N)N)C(C)C)C(C)C)C(C)C)[C@@H](C)CC)[C@@H](C)O)C(C)C)C(=O)N[C@@H](CC(N)=O)C(=O)N[C@@H](CC(C)C)C(=O)N[C@@H](Cc1ccc(O)cc1)C(=O)N[C@@H](CCCCN)C(=O)N[C@@H](C)C(=O)N[C@H](C(=O)N[C@@H](CCCNC(=N)N)C(=O)N[C@@H](CCCNC(=N)N)C(=O)N[C@@H](CCCCN)C(=O)O)[C@@H](C)CC [CATH-3] (H-RVKRFWPLVPVAINTVAAGINLYKAIRRK-OH)	20 µM (≈ 67 µg/mL)	10 µM (≈ 33.5 µg/mL)	10 to 20 µM	10 to 20 µM	–	–
CC[C@H](C)[C@H](NC(=O)CNC(=O)[C@H](CC(N)=O)NC(=O)[C@H](CC(C)C)NC(=O)[C@H](Cc1c[nH]c2ccccc12)NC(=O)[C@H](CCC(=O)O)NC(=O)[C@H](Cc1c[nH]c2ccccc12)NC(=O)[C@@H](NC(=O)[C@H](CCCNC(=N)N)NC(=O)[C@@H](NC(=O)[C@H](Cc1c[nH]c2ccccc12)NC(=O)[C@H](Cc1c[nH]c2ccccc12)NC(=O)[C@H](CC(N)=O)NC(=O)[C@H](CCCNC(=N)N)NC(=O)[C@@H](NC(=O)[C@@H]1CCCN1)[C@@H](C)CC)[C@@H](C)CC)[C@@H](C)CC)C(=O)N[C@@H](CCCNC(=N)N)C(=O)N[C@@H](CCCCN)C(=O)N[C@@H](CCCNC(=N)N)C(=O)N[C@@H](CC(C)C)C(=O)N[C@@H](CCCNC(=N)N)C(=O)N[C@@H](CCC(N)=O)C(=O)N[C@@H](CCCNC(=N)N)C(=O)N[C@@H](CO)C(=O)N1CCC[C@H]1C(=O)N[C@@H](Cc1ccccc1)C(=O)N[C@@H](Cc1ccc(O)cc1)C(=O)N[C@H](C(=O)N[C@@H](CCCNC(=N)N)C(=O)NCC(=O)N[C@@H](Cc1c[nH]cn1)C(=O)N[C@@H](CC(C)C)C(=O)N[C@@H](CC(N)=O)C(=O)N[C@H](C(=O)N[C@H](C(=O)N[C@@H](CO)C(=O)N[C@H](C(=O)N1CCC[C@H]1C(=O)N[C@@H](CCC(N)=O)C(=O)N1CCC[C@H]1C(=O)O)[C@@H](C)O)[C@@H](C)O)C(C)C)C(C)C [CATH-B1] (H-PIRNWWIRIWEWLNGIRKRLRQRSPFYVRGHLNVTSTPQP-OH)	> 40 µM	> 40 µM	> 40 µM	> 40 µM	–	–
CC[C@H](C)[C@H](NC(=O)[C@H](CCCCN)NC(=O)[C@H](CCC(=O)O)NC(=O)CNC(=O)CNC(=O)[C@H](CCCCN)NC(=O)[C@H](CCCNC(=N)N)NC(=O)[C@H](CC(C)C)NC(=O)[C@H](CC(C)C)NC(=O)CN)C(=O)NCC(=O)N[C@@H](CCC(=O)O)C(=O)N[C@@H](CCCCN)C(=O)N[C@@H](CC(C)C)C(=O)N[C@@H](CCCCN)C(=O)N[C@@H](CCCCN)C(=O)N[C@H](C(=O)NCC(=O)N[C@@H](CCC(N)=O)C(=O)N[C@@H](CCCCN)C(=O)N[C@H](C(=O)N[C@@H](CCCCN)C(=O)N[C@@H](CC(N)=O)C(=O)N[C@@H](Cc1ccccc1)C(=O)N[C@@H](Cc1ccccc1)C(=O)N[C@@H](CCC(N)=O)C(=O)N[C@@H](CCCCN)C(=O)N[C@@H](CC(C)C)C(=O)N[C@H](C(=O)N1CCC[C@H]1C(=O)N[C@@H](CCC(N)=O)C(=O)N1CCC[C@H]1C(=O)N[C@@H](CCC(=O)O)C(=O)N[C@@H](CCC(N)=O)C(=O)O)C(C)C)[C@@H](C)CC)[C@@H](C)CC [CRAMP] (H-GLLRKGGEKIGEKLKKIGQKIKNFFQKLVPQPEQ-OH)	> 40 µM	> 40 µM	> 40 µM	> 40 µM	40 µM	40 µM
CC[C@H](C)[C@H](NC(=O)[C@H](CCCCN)NC(=O)[C@H](CCCCN)NC(=O)[C@H](CC(C)C)NC(=O)[C@H](CCCNC(=N)N)NC(=O)[C@H](CCCCN)NC(=O)[C@H](CCCNC(=N)N)NC(=O)[C@@H](NC(=O)[C@H](CCCCN)NC(=O)[C@H](CCCCN)NC(=O)[C@H](CCCNC(=N)N)NC(=O)[C@H](CC(C)C)NC(=O)[C@H](CCCNC(=N)N)NC(=O)[C@H](CCCNC(=N)N)NC(=O)[C@H](Cc1ccccc1)NC(=O)[C@H](CCCNC(=N)N)NC(=O)CN)[C@@H](C)O)C(=O)NCC(=O)N[C@@H](CCCCN)C(=O)N[C@H](C(=O)N[C@@H](CC(C)C)C(=O)N[C@@H](CCCCN)C(=O)N[C@@H](Cc1c[nH]c2ccccc12)C(=O)N[C@H](C(=O)N1CCC[C@H]1C(=O)N1CCC[C@H]1C(=O)N[C@H](C(=O)N[C@H](C(=O)NCC(=O)N[C@@H](CO)C(=O)N[C@H](C(=O)N1CCC[C@H]1C(=O)N[C@@H](CC(C)C)C(=O)NCC(=O)N[C@@H](CS)C(=O)NCC(=O)O)[C@@H](C)CC)C(C)C)[C@@H](C)CC)[C@@H](C)CC)C(C)C [PMAP-36] (H-GRFRRLRKKTRKRLKKIGKVLKWIPPIVGSIPLGCG-OH)	40 µM (≈ 166 µg/mL)	> 40 µM	> 40 µM	> 40 µM	–	–
CC[C@H](C)[C@H](NC(=O)[C@H](CCCNC(=N)N)NC(=O)[C@@H]1CCCN1C(=O)[C@@H]1CCCN1C(=O)[C@H](CC(C)C)NC(=O)[C@H](CCCNC(=N)N)NC(=O)[C@@H]1CCCN1C(=O)[C@@H]1CCCN1C(=O)[C@H](Cc1ccccc1)NC(=O)[C@H](Cc1ccccc1)NC(=O)[C@@H]1CCCN1C(=O)[C@@H]1CCCN1C(=O)[C@@H]1CCCN1C(=O)[C@H](CCCNC(=N)N)NC(=O)[C@@H]1CCCN1C(=O)[C@H](CCCNC(=N)N)NC(=O)[C@@H]1CCCN1C(=O)[C@H](CC(C)C)NC(=O)[C@H](Cc1ccc(O)cc1)NC(=O)[C@@H]1CCCN1C(=O)[C@@H]1CCCN1C(=O)[C@H](CCCNC(=N)N)NC(=O)[C@@H]1CCCN1C(=O)[C@H](CCCNC(=N)N)NC(=O)[C@H](CCCNC(=N)N)NC(=O)[C@@H](N)CCCNC(=N)N)C(=O)N1CCC[C@H]1C(=O)N1CCC[C@H]1C(=O)NCC(=O)N[C@@H](Cc1ccccc1)C(=O)N1CCC[C@H]1C(=O)N1CCC[C@H]1C(=O)N[C@@H](CCCNC(=N)N)C(=O)N[C@@H](Cc1ccccc1)C(=O)N1CCC[C@H]1C(=O)N1CCC[C@H]1C(=O)N[C@@H](CCCNC(=N)N)C(=O)N[C@@H](Cc1ccccc1)C(=O)N1CCC[C@H]1C(=O)O [PR-39] (H-RRRPRPPYLPRPRPPPFFPPRLPPRIPPGFPPRFPPRFP-OH)	> 40 µM	> 40 µM	> 40 µM	> 40 µM	–	–
